Experimental findings from US10323041B2, “Bicyclic derivatives, a process for their preparation and pharmaceutical compositions containing them” (LES LABORATOIRES SERVIER, priority 2015, dated 2019) are described below.

In the first experiment the target is Mcl-1 protein (Homo sapiens, UniProt Q07820). Nature of the experiment: Inhibition of Mcl-1 by the fluorescence polarisation technique. In kind it is binding. The note with it: @ 10 μM test compound; partial inhibitors. The protocol: The relative binding potency of each compound was determined via fluorescence Polarisation (FP). The method utilised a Fluorescein labelled ligand Fluorescein-βAla-Ahx-[A-REIGAQLRRMADDLNAQY (SEQ ID NO: 1)]-OH; mw 2,765) which binds to the Mcl-1 protein (such that corresponds to the UniProtKB® primary accession number: Q07820) leading to an increased anisotropy measured in milli-polarisation (mP) units using a reader. The addition of a compound which binds competitively to the same site as the ligand will result in a greater proportion of unbound ligand in the system indicated by a decrease in mP units.
Chain of Mcl-1 protein (Q07820 whole entry): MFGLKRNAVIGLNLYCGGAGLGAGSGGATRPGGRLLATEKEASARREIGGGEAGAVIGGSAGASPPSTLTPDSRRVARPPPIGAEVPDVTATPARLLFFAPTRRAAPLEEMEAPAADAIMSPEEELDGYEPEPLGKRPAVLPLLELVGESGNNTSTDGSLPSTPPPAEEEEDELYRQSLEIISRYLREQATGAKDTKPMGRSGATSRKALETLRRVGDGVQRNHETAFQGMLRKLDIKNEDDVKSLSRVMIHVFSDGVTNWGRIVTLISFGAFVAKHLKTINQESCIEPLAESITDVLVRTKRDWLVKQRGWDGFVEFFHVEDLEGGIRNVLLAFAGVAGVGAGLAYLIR
Method 1: An 11 point serial dilution of each compound was prepared in DMSO and 2 μl transferred into flat bottomed, low binding, 384-well plate (final DMSO concentration 5%). 38 μl of buffer (10 mM 4-(2-hydroxyethyl)-1-piperazineethanesulfonic acid [HEPES], 150 mM NaCl, 0.05% Tween 20, pH 7.4), containing the Fluorescein labelled ligand (final concentration 1 nM) and Mcl-1 protein (final concentration 5 nM) was then added.
(§1) Assay plates were incubated ˜2 hours at room temperature before FP was measured on a […] Synergy2 reader (Ex. 528 nm, Em. 640 nm, Cut off 510 nm) and mP units calculated. The binding of increasing doses of test compound was expressed as a percentage reduction in mP compared to a window established between ‘5% DMSO only’ and ‘100% inhibition’ controls. 11-point dose response curves were plotted with XL-Fit software using a 4-Parameter Logistic Model (Sigmoidal Dose-Response Model) and the inhibitory concentrations that gave a 50% reduction in mP (IC50) were determined. Results obtained using Method 1 are presented in Table 1 below; IC50 of Mcl-1 inhibition obtained using Method 1 are not underlined.
Method 2: An 11 point serial dilution of each compound was prepared in DMSO and 2 μl transferred into flat bottomed, low binding, 384-well plate (final DMSO concentration 5%). 38 μl of buffer (20 mM Na2HPO4, 1 mM EDTA, 50 mM NaCl, pH 7.4), containing the Fluorescein labelled ligand (final concentration 10 nM) and Mcl-1 protein (final concentration 10 nM) was then added.
as §1, with “inhibition’ controls (50 μM unlabelled ligand).” for “inhibition’ controls.”, “Method 2” for “Method 1”, “are” for “are not”
(In fluorescence polarisation assays a small probe gives low polarisation when free and higher when bound to something large.)
Consider `CCc1sc2cccc(OC(Cc3ccccc3)C(=O)O)c2c1-c1ccc(O)c(Cl)c1C` [Example 50, (2R)-2-{[(3Ra)-3-(3-chloro-4-hydroxy-2-methylphenyl)-2-ethyl-1-benzothiophen-4-yl]oxy}-3-phenylpropanoic acid], for which the “percentage fluorescence polarization inhibition” value was 65.85% @ 10 μM.
With `COc1ccccc1C[C@@H](Oc1cccc2cc(-c3ccc(F)cc3)n(-c3ccc(OCCN4CCN(C)CC4)c(Cl)c3C)c12)C(=O)O` [Example 55], the “percentage fluorescence polarization inhibition” value is reported as 55.35% @ 10 μM.

The same experiment, now with this note: @ 50 μM test compound; partial inhibitors.
For the compound `CCc1c(-c2cccc(Cl)c2C)c2c(NC(Cc3ccccc3)C(=O)O)ncnc2n1C` [Example 20, N-[(5Ra)-5-(3-chloro-2-methylphenyl)-6-ethyl-7-methyl-7H-pyrrolo[2,3-d]pyrimidin-4-yl]-D-phenylalanine], the “percentage fluorescence polarization inhibition” value is 64.8% @ 50 μM.
For the compound `CCc1c(-c2cccc(Cl)c2C)c2c(NC(Cc3ccccc3)C(=O)O)ncnc2n1CC1CC1` [Example 22, N-[(5Ra)-5-(3-chloro-2-methylphenyl)-7-(cyclopropylmethyl)-6-ethyl-7H-pyrrolo[2,3-d]pyrimidin-4-yl]-D-phenylalanine], the “percentage fluorescence polarization inhibition” value worked out at 74.2% @ 50 μM.
For the compound `CCc1c(-c2cccc(Cl)c2C)c2c(NC(Cc3ccccc3)C(=O)O)ncnc2n1CC(F)(F)F` [Example 28, N-[(5Ra)-5-(3-chloro-2-methylphenyl)-6-ethyl-7-(2,2,2-trifluoroethyl)-7H-pyrrolo[2,3-d]pyrimidin-4-yl]-D-phenylalanine], the “percentage fluorescence polarization inhibition” value worked out at 63.25% @ 50 μM.
Same read-out and setting: then `C=CCn1c(Br)c(-c2cccc(Cl)c2C)c2c(NC(Cc3ccccc3)C(=O)O)ncnc21` [Example 43, N-[6-bromo-(5Ra)-5-(3-chloro-2-methylphenyl)-7-(prop-2-en-1-yl)-7H-pyrrolo[2,3-d]pyrimidin-4-yl]-D-phenylalanine], with 66.9% @ 50 μM.

Staying with this experiment, now noted: @ 50 μM test compound; partial inhibitors; 50 µM.
Consider `CCc1c(-c2cccc(Cl)c2C)c2c(N[C@H](Cc3ccccc3)C(=O)O)ncnc2n1C(C)C` [Example 38, N-[(5Ra)-5-(3-chloro-2-methylphenyl)-6-ethyl-7-(propan-2-yl)-7H-pyrrolo[2,3-d]pyrimidin-4-yl]-D-phenylalanine], for which the “percentage fluorescence polarization inhibition” value is 67% @ 50 μM.
Consider `CCc1c(-c2cccc(Cl)c2C)c2c(N[C@H](Cc3ccccc3)C(=O)O)ncnc2n1C(C)C` [Example 39, N-[(5Sa)-5-(3-chloro-2-methylphenyl)-6-ethyl-7-(propan-2-yl)-7H-pyrrolo[2,3-d]pyrimidin-4-yl]-D-phenylalanine], for which the “percentage fluorescence polarization inhibition” value is 77.75% @ 50 μM.

Staying with this experiment, now noted: @ 50 μM test compound; partial inhibitors; read-out: percentage fluorescence polarization inhibition.
As a reminder, the inhibition is how much of the control response was suppressed. As to `Cc1c(Cl)cccc1-c1c2n(c3ncnc(N[C@H](Cc4ccccc4)C(=O)O)c13)CCC2` [Example 46, N-[5-(3-chloro-2-methylphenyl)-7,8-dihydro-6H-pyrimido[5,4-b]pyrrolizin-4-yl]-D-phenylalanine], the inhibition at 50 µM came to 71%.

The experiment is the same for the next values; noted with them: Method 1 (not underlined) or Method 2 (underlined); underlining not visible; first value where cell prints two; read-out: IC50 (M) Mcl-1 FP.
The IC50 is the concentration that inhibits the measured activity by half. As to `Cc1c(Cl)cccc1-c1c2n(c3ncnc(NC(Cc4ccccc4)C(=O)O)c13)CCCC2` (single isomer, unassigned) [Example 48, N-[(5Sa)-5-(3-chloro-2-methylphenyl)-6,7,8,9-tetrahydropyrimido[5,4-b]indolizin-4-yl]-D-phenylalanine], the half-maximal inhibitory concentration (IC50) worked out at 5.9e-06 M.
As for `COc1ccccc1-c1nccc(COc2ccccc2CC(Oc2cccc3sc(-c4ccc(F)cc4)c(-c4ccc(OCCN5CCN(C)CC5)c(Cl)c4C)c23)C(=O)O)n1` (single isomer, unassigned) [Example 52], the concentration for half-maximal inhibition (IC50) stood at 1.6e-06 M.
As for `COc1ccccc1-c1nccc(COc2ccccc2CC(Oc2cccc3oc(-c4ccc(F)cc4)c(-c4ccc(OCCN5CCN(C)CC5)c(Cl)c4C)c23)C(=O)O)n1` (single isomer, unassigned) [Example 63], the IC50 is 1.7e-07 M.
Same read-out and setting: the result for `COc1ccccc1-c1nccc(COc2ccccc2CC(Oc2cccc3c2c(-c2ccc(OCCN4CCN(C)CC4)c(Cl)c2C)c(-c2ccc(F)cc2)n3C)C(=O)O)n1` (single isomer, unassigned) [Example 68] reads 1.2e-06 M.
Take `Cc1c(-c2c(-c3ccc(F)cc3)oc3ncnc(O[C@H](Cc4ccccc4OCc4ccnn4C(C)(C)C)C(=O)O)c23)ccc(OCCN(C)C)c1Cl` [Example 6, (2R)-3-{2-[(1-tert-butyl-1H-pyrazol-5-yl)methoxy]phenyl}-2-{[5-{3-chloro-4-[2-(dimethylamino)ethoxy]-2-methylphenyl}-6-(4-fluorophenyl)furo[2,3-d]pyrimidin-4-yl]oxy}propanoic acid]: the IC50 worked out at 8.9e-09 M.
Consider `Cn1cc(-c2cccc3ccccc23)c2c(N[C@H](Cc3ccccc3)C(=O)O)ncnc21` [Example 10, N-[7-methyl-5-(naphthalen-1-yl)-7H-pyrrolo[2,3-d]pyrimidin-4-yl]-D-phenylalanine], for which the IC50 stood at 1.8e-05 M.
For `O=C(O)[C@@H](Cc1ccccc1)Nc1ncnc2[nH]cc(-c3cccc4ccccc34)c12` [Example 11, N-[5-(naphthalen-1-yl)-7H-pyrrolo[2,3-d]pyrimidin-4-yl]-D-phenylalanine], the IC50 worked out at 3.4e-05 M.
Still for that read-out and setting: the result for `CCc1c(-c2cccc(Cl)c2C)c2c(NC(Cc3ccccc3)C(=O)O)ncnc2n1C` [Example 21, N-[(5Sa)-5-(3-chloro-2-methylphenyl)-6-ethyl-7-methyl-7H-pyrrolo[2,3-d]pyrimidin-4-yl]-D-phenylalanine] reads 8.7e-06 M.
Consider `CCc1c(-c2cccc(Cl)c2C)c2c(NC(Cc3ccccc3)C(=O)O)ncnc2n1CC1CC1` [Example 23, N-[(5Sa)-5-(3-chloro-2-methylphenyl)-7-(cyclopropylmethyl)-6-ethyl-7H-pyrrolo[2,3-d]pyrimidin-4-yl]-D-phenylalanine], for which the IC50 turned out to be 6.8e-06 M.
Turning to `CCc1c(-c2cccc(Cl)c2C)c2c(NC(Cc3ccccc3)C(=O)O)ncnc2n1CC(F)(F)F` [Example 29, N-[(5Sa)-5-(3-chloro-2-methylphenyl)-6-ethyl-7-(2,2,2-trifluoroethyl)-7H-pyrrolo[2,3-d]pyrimidin-4-yl]-D-phenylalanine], the half-inhibitory concentration (IC50) is 8.5e-06 M.
Turning to `CCc1c(-c2ccc(OCCN3CCN(C)CC3)c(Cl)c2C)c2c(OC(Cc3ccccc3)C(=O)O)ncnc2n1Cc1ccccc1` [Example 40, (2R)-2-[(7-benzyl-(5Sa)-5-{3-chloro-2-methyl-4-[2-(4-methylpiperazin-1-yl)ethoxy]phenyl}-6-ethyl-7H-pyrrolo[2,3-d]pyrimidin-4-yl)oxy]-3-phenylpropanoic acid], the half-inhibitory concentration (IC50) amounted to 8.6e-07 M.
Turning to `C=CCn1c(Br)c(-c2cccc(Cl)c2C)c2c(NC(Cc3ccccc3)C(=O)O)ncnc21` [Example 44, N-[6-bromo-(5Sa)-5-(3-chloro-2-methylphenyl)-7-(prop-2-en-1-yl)-7H-pyrrolo[2,3-d]pyrimidin-4-yl]-D-phenylalanine], the IC50 was found to be 2.5e-06 M.
As to `Cc1c(-c2cn(Cc3ccccc3)c3ncnc(O[C@H](Cc4ccccc4)C(=O)O)c23)ccc(OCCN2CCN(C)CC2)c1Cl` [Example 45, (2R)-2-[(7-benzyl-5-{3-chloro-2-methyl-4-[2-(4-methylpiperazin-1-yl)ethoxy]phenyl}-7H-pyrrolo[2,3-d]pyrimidin-4-yl)oxy]-3-phenylpropanoic acid], the half-inhibitory concentration (IC50) came out at 1.8e-06 M.
Consider `CCc1sc2cccc(OC(Cc3ccccc3)C(=O)O)c2c1-c1ccc(O)c(Cl)c1C` [Example 49, (2R)-2-{[(3Sa)-3-(3-chloro-4-hydroxy-2-methylphenyl)-2-ethyl-1-benzothiophen-4-yl]oxy}-3-phenylpropanoic acid], for which the concentration for half-maximal inhibition (IC50) came out at 3.9e-08 M.
In the case of `CCc1sc2cccc(CC(Cc3ccccc3)C(=O)O)c2c1-c1ccc(O)c(Cl)c1C` (centres unmarked) [Example 54, 2-benzyl-3-[3-(3-chloro-4-hydroxy-2-methylphenyl)-2-ethyl-1-benzothiophen-4-yl]propanoic acid], the IC50 was 1.2e-07 M.
`COc1ccccc1CC(Oc1cccc2cc(-c3ccc(F)cc3)n(-c3ccc(OCCN4CCN(C)CC4)c(Cl)c3C)c12)C(=O)O` (centres unmarked) [Example 56]: the IC50 came to 4.7e-08 M.

Staying with this experiment, now noted: value after '/'; presumably the other FP method (Method 1 / Method 2); read-out: IC50 (M) Mcl-1 FP, second value of the cell.
With `CCc1c(-c2ccc(OCCN3CCN(C)CC3)c(Cl)c2C)c2c(OC(Cc3ccccc3)C(=O)O)ncnc2n1Cc1ccccc1` [Example 40, (2R)-2-[(7-benzyl-(5Sa)-5-{3-chloro-2-methyl-4-[2-(4-methylpiperazin-1-yl)ethoxy]phenyl}-6-ethyl-7H-pyrrolo[2,3-d]pyrimidin-4-yl)oxy]-3-phenylpropanoic acid], the half-inhibitory concentration (IC50) turned out to be 3.3e-08 M.
